The subject of assay [1] is Mycobacterium tuberculosis. The assay can be described thus: Inhibition of Mycobacterium tuberculosis MTCC 300 DAH7PS expressed in Escherichia coli BL21 (DE3) using 25 to 125 uM PEP/100 uM E4P as substrate up to 50 nM by spectrophotometric analysis.
Assay [2] relates to Mycobacterium tuberculosis. Kind of assay: (§1) Inhibition of Mycobacterium tuberculosis MTCC 300 DAH7PS expressed in Escherichia coli BL21 (DE3) using 25 to 125 uM PEP/100 uM E4P as substrate by spectrophotometric analysis.
A short description of assay [3]: as §1.
Assay [4] deals with Mycobacterium tuberculosis. Kind of assay: Inhibition of Mycobacterium tuberculosis MTCC 300 DAH7PS expressed in Escherichia coli BL21 (DE3) using 25 to 125 uM PEP/100 uM E4P as substrate at 10 uM by spectrophotometric analysis relative to control.

The structures appear in SMILES notation. The source made the active and inactive calls. No cut-off for these calls is given here.

In the case of `Cc1c(C)c2c(c(C)c1O)CC[C@@](C)(CCC[C@H](C)CCC[C@H](C)CCCC(C)C)O2` [ALPHA-TOCOPHEROL], in assay [1], the inhibition (usually the change of the read-out against control, counted positive when it falls) is “inactive”. Besides, the figures for the inhibition result in assay [2] and in assay [4] were “Dose-dependent effect” and 21%, respectively. The half-maximal inhibitory concentration (IC50) (in general, the concentration needed to halve the response being measured) in assay [3] stood at 21 µM.

With `O=C(/C=C/c1ccc(O)c(O)c1)O[C@@H]1C[C@](O)(C(=O)O)C[C@@H](O)[C@H]1O` [CHLOROGENIC ACID], in assay [1], the inhibition result was “inactive”. Besides, in assay [3], the midpoint of inhibition, the IC50, lay at 291 µM. Besides, the inhibition in assay [4] was 9%.

Take `C[C@]1(O)CC[C@@H]2C(C(=O)O)=CO[C@@H](O[C@@H]3O[C@H](CO)[C@@H](O)[C@H](O)[C@H]3OC(=O)c3ccc(O)cc3)[C@@H]21` [NEGUNDOSIDE]: in assay [1], the inhibition entry was “inactive”. The compound also registered a half-maximal inhibitory concentration (IC50) in assay [3] of 159 µM. Moreover, the inhibition in assay [4] is 8%.

As for `O=Cc1cccnc1` [NICOTINALDEHYDE], the inhibition entry in assay [1] is “inactive”. Also, the inhibition entry in assay [2] is “Dose-dependent effect”; in assay [4] it was 16%. For the same compound, the half-maximal inhibitory concentration (IC50) in assay [3] was determined as 54 µM.

Consider `C[C@@H]1O[C@@H](OC[C@H]2O[C@@H](Oc3c(-c4ccc(O)c(O)c4)oc4cc(O)cc(O)c4c3=O)[C@H](O)[C@@H](O)[C@@H]2O)[C@H](O)[C@H](O)[C@H]1O` [RUTIN], for which the inhibition entry in assay [1] was “inactive”. For the same compound, the inhibition entry in assay [2] was “Dose-dependent effect”; in assay [4], 17%. For the same compound, in assay [3], the IC50 was determined as 42 µM.

The compound `N[C@@H](Cc1ccc(O)cc1)C(=O)O` [TYROSINE] yielded a half-inhibitory concentration (IC50) in assay [3] of 13 µM. In addition, the inhibition in assay [4] is 41%.
